Test results as given in patent publication US20060293307A1, “Oxazolidinone derivatives as antimicrobials” (priority 2002, published 2006).
≈ marks a conversion by molar mass, not a printed value. Where two headings read alike, the source gives them in different places.

Legend:
Test in all cases: MIC, agar incorporation method
S. pneumoniae AB 14 = type: cell-based, Streptococcus pneumoniae
S. haemo ATCC 29970 = type: cell-based
S. pyogenes 25147 = type: cell-based, Streptococcus pyogenes
S. aureus SG 511 = type: cell-based, Staphylococcus aureus
[1] = tested on: S. epidermidis (MRSE)32965; type: cell-based, Staphylococcus epidermidis
S. pneumoniae ATCC 6303 = type: cell-based, Streptococcus pneumoniae
S. pneumoniae CS 1687 = type: cell-based, Streptococcus pneumoniae
(MRSA) 562 = type: cell-based, Staphylococcus aureus
S. pneumoniae ATCC 49619 = type: cell-based, Streptococcus pneumoniae
S. aureus (Smith 49951) = type: cell-based, Staphylococcus aureus
S. aureus ATCC29213 = type: cell-based, Staphylococcus aureus
Acinetobacter 9956 = type: cell-based
S. aureus (MRSA) ST450 = type: cell-based, Staphylococcus aureus
S. pneumoniae AB 21 = type: cell-based, Streptococcus pneumoniae
S. pneumoniae AB 22 = type: cell-based, Streptococcus pneumoniae
S. epidermidis 358 = type: cell-based, Staphylococcus epidermidis
E. faecium 398(VRE) = type: cell-based, Enterococcus faecium
S. pneumoniae 1251 = type: cell-based, Streptococcus pneumoniae
S. pneumoniae AB 31 = type: cell-based, Streptococcus pneumoniae
Salmonella 205 = type: cell-based; conditions: S. No. 26, Salmonella 205
Procedure, shortened: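 Doubling dilutions of compound in DMSO were incorporated into Mueller-Hinton agar; 10^4 CFU/spot inoculated from 0.5 McFarland suspensions and incubated 18 h (24 h for MRSN studies). MIC = lowest concentration without visible growth; valid only when ATCC reference strains gave in-range MICs.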

S. aureus (MRSA) 15187 = type: cell-based, Staphylococcus aureus
S. pneumoniae CS1221 = type: cell-based, Streptococcus pneumoniae
E. durans 581 = type: cell-based
S. pneumoniae 217 = type: cell-based, Streptococcus pneumoniae
S. pneumoniae AB 16 = type: cell-based, Streptococcus pneumoniae
Moraxella M1 = type: cell-based
E. faecium 6A (VRE) = type: cell-based, Enterococcus faecium
[2] = tested on: Serratia marcescens 12999; type: cell-based
E. coli 25922 = type: cell-based
S. pneumoniae AB 34 = type: cell-based, Streptococcus pneumoniae
S. pneumoniae AB 25 = type: cell-based, Streptococcus pneumoniae
S. epidermidis 823 = type: cell-based, Staphylococcus epidermidis
[3] = Staphylococcus epidermidis, MRSE
[4] = Streptococcus pneumoniae, ATCC6303
[5] = Streptococcus pneumoniae, CS1687
[6] = Streptococcus pneumoniae, ATCC49619
[7] = Staphylococcus aureus, ATCC29213
[8] = Staphylococcus epidermidis, 358
[9] = Streptococcus pneumoniae, CS1221
[10] = Staphylococcus epidermidis, 823

CC(=O)NC[C@H]1CN(c2ccc(N3CCOCC3)c(F)c2)C(=O)O1 [Linezolid, reference compound]
MIC (S. pneumoniae AB 14; Streptococcus pneumoniae, AB14): 1 µg/mL (≈ 2.96 µM)
MIC (S. haemo ATCC 29970): < 0.5 µg/mL
MIC (S. pyogenes 25147; Streptococcus pyogenes, 25147): 1 µg/mL (≈ 2.96 µM)
MIC (S. aureus SG 511; Staphylococcus aureus, SG511): 2 µg/mL (≈ 5.93 µM)
MIC [1, 3]: 1 µg/mL (≈ 2.96 µM)
MIC (S. pneumoniae ATCC 6303; [4]): 1 µg/mL (≈ 2.96 µM)
MIC (S. pneumoniae CS 1687; [5]): 1 µg/mL (≈ 2.96 µM)
MIC ((MRSA) 562; Staphylococcus aureus, MRSA): 1 µg/mL (≈ 2.96 µM)
MIC (S. pneumoniae ATCC 49619; [6]): 1 µg/mL (≈ 2.96 µM)
MIC (S. aureus (Smith 49951); Staphylococcus aureus): 1 µg/mL (≈ 2.96 µM)
MIC (S. aureus ATCC29213; [7]): 2 µg/mL (≈ 5.93 µM)
MIC (Acinetobacter 9956; Acinetobacter, 9956): > 16 µg/mL
MIC (S. aureus (MRSA) ST450; Staphylococcus aureus, MRSA): 1 µg/mL (≈ 2.96 µM)
MIC (S. pneumoniae AB 21; Streptococcus pneumoniae, AB21): 1 µg/mL (≈ 2.96 µM)
MIC (S. pneumoniae AB 22; Streptococcus pneumoniae, AB22): 1 µg/mL (≈ 2.96 µM)
MIC (S. epidermidis 358; [8]): 1 µg/mL (≈ 2.96 µM)
MIC (E. faecium 398(VRE); Enterococcus faecium, VRE): 1 µg/mL (≈ 2.96 µM)
MIC (S. pneumoniae 1251; Streptococcus pneumoniae, 1251): 1 µg/mL (≈ 2.96 µM)
MIC (S. pneumoniae AB 31; Streptococcus pneumoniae, AB31): 1 µg/mL (≈ 2.96 µM)
MIC (Salmonella 205; read-out: MIC): > 16 µg/mL
MIC (S. aureus (MRSA) 15187; Staphylococcus aureus, MRSA): 2 µg/mL (≈ 5.93 µM)
MIC (S. pneumoniae CS1221; [9]): 0.25 µg/mL (≈ 0.741 µM)
MIC (E. durans 581; Enterococcus durans, 581): 1 µg/mL (≈ 2.96 µM)
MIC (S. pneumoniae 217; Streptococcus pneumoniae, 217): 1 µg/mL (≈ 2.96 µM)
MIC (S. pneumoniae AB 16; Streptococcus pneumoniae, AB16): 1 µg/mL (≈ 2.96 µM)
MIC (Moraxella M1; Moraxella, M1): 4 µg/mL (≈ 11.9 µM)
MIC (E. faecium 6A (VRE); Enterococcus faecium, VRE): 2 µg/mL (≈ 5.93 µM)
MIC ([2]; Serratia marcescens, 12999): > 16 µg/mL
MIC (E. coli 25922; Escherichia coli, 25922): > 16 µg/mL
MIC (S. pneumoniae AB 34; Streptococcus pneumoniae, AB34): 2 µg/mL (≈ 5.93 µM)
MIC (S. pneumoniae AB 25; Streptococcus pneumoniae, AB25): 1 µg/mL (≈ 2.96 µM)
MIC (S. epidermidis 823; [10]): < 0.5 µg/mL

CN[C@H](CC(C)C)C(=O)N[C@H]1C(=O)N[C@@H](CC(N)=O)C(=O)N[C@H]2C(=O)N[C@H]3C(=O)N[C@H](C(=O)N[C@H](C(=O)O)c4cc(O)cc(O)c4-c4cc3ccc4O)[C@H](O)c3ccc(c(Cl)c3)Oc3cc2cc(c3O[C@@H]2O[C@H](CO)[C@@H](O)[C@H](O)[C@H]2O[C@H]2C[C@](C)(N)[C@H](O)[C@H](C)O2)Oc2ccc(cc2Cl)[C@H]1O [Vancomycin, reference compound]
MIC (S. pneumoniae AB 14; Streptococcus pneumoniae, AB14): 0.25 µg/mL (≈ 0.173 µM)
MIC (S. haemo ATCC 29970): 1 µg/mL (≈ 0.69 µM)
MIC (S. pyogenes 25147; Streptococcus pyogenes, 25147): 0.5 µg/mL (≈ 0.345 µM)
MIC (S. aureus SG 511; Staphylococcus aureus, SG511): 0.5 µg/mL (≈ 0.345 µM)
MIC [1, 3]: 2 µg/mL (≈ 1.38 µM)
MIC (S. pneumoniae ATCC 6303; [4]): 0.25 µg/mL (≈ 0.173 µM)
MIC (S. pneumoniae CS 1687; [5]): 0.25 µg/mL (≈ 0.173 µM)
MIC ((MRSA) 562; Staphylococcus aureus, MRSA): 1 µg/mL (≈ 0.69 µM)
MIC (S. pneumoniae ATCC 49619; [6]): 0.25 µg/mL (≈ 0.173 µM)
MIC (S. aureus (Smith 49951); Staphylococcus aureus): 1 µg/mL (≈ 0.69 µM)
MIC (S. aureus ATCC29213; [7]): 0.5 µg/mL (≈ 0.345 µM)
MIC (Acinetobacter 9956; Acinetobacter, 9956): > 16 µg/mL
MIC (S. aureus (MRSA) ST450; Staphylococcus aureus, MRSA): 0.5 µg/mL (≈ 0.345 µM)
MIC (S. pneumoniae AB 21; Streptococcus pneumoniae, AB21): 0.25 µg/mL (≈ 0.173 µM)
MIC (S. pneumoniae AB 22; Streptococcus pneumoniae, AB22): 0.25 µg/mL (≈ 0.173 µM)
MIC (S. epidermidis 358; [8]): 2 µg/mL (≈ 1.38 µM)
MIC (E. faecium 398(VRE); Enterococcus faecium, VRE): > 16 µg/mL
MIC (S. pneumoniae 1251; Streptococcus pneumoniae, 1251): 0.25 µg/mL (≈ 0.173 µM)
MIC (S. pneumoniae AB 31; Streptococcus pneumoniae, AB31): 0.25 µg/mL (≈ 0.173 µM)
MIC (Salmonella 205; read-out: MIC): > 16 µg/mL
MIC (S. aureus (MRSA) 15187; Staphylococcus aureus, MRSA): 0.5 µg/mL (≈ 0.345 µM)
MIC (S. pneumoniae CS1221; [9]): 0.25 µg/mL (≈ 0.173 µM)
MIC (E. durans 581; Enterococcus durans, 581): > 16 µg/mL
MIC (S. pneumoniae 217; Streptococcus pneumoniae, 217): 0.5 µg/mL (≈ 0.345 µM)
MIC (S. pneumoniae AB 16; Streptococcus pneumoniae, AB16): 0.25 µg/mL (≈ 0.173 µM)
MIC (Moraxella M1; Moraxella, M1): > 8 µg/mL
MIC (E. faecium 6A (VRE); Enterococcus faecium, VRE): > 16 µg/mL
MIC ([2]; Serratia marcescens, 12999): > 16 µg/mL
MIC (E. coli 25922; Escherichia coli, 25922): > 16 µg/mL
MIC (S. pneumoniae AB 34; Streptococcus pneumoniae, AB34): 0.25 µg/mL (≈ 0.173 µM)
MIC (S. pneumoniae AB 25; Streptococcus pneumoniae, AB25): 0.25 µg/mL (≈ 0.173 µM)
MIC (S. epidermidis 823; [10]): 2 µg/mL (≈ 1.38 µM)

O=C(NC[C@H]1CN(c2ccc(N3CCN(c4ccc([N+](=O)[O-])s4)CC3)c(F)c2)C(=O)O1)C(Cl)Cl [compound 9, (S)—N-[[3-[-3-Fluoro-4-[N-1-(5-nitro-2-thienyl)-piperazinyl]phenyl] -2-oxo-5-oxazolidinyl]methyl]dichloroacetamide]
MIC (S. pneumoniae AB 14; S. No. 37, S. pneumoniae AB 14): 0.25 µg/mL (≈ 0.47 µM)
MIC (S. haemo ATCC 29970; S. No. 15, S. haemo ATCC 29970): 0.5 µg/mL (≈ 0.939 µM)
MIC (S. pyogenes 25147; S. No. 52, S. pyogenes 25147): 0.5 µg/mL (≈ 0.939 µM)
MIC (S. aureus SG 511; S. No. 3, S. aureus SG 511): 0.5 µg/mL (≈ 0.939 µM)
MIC ([1]; S. No. 13, S. epidermidis (MRSE)32965): 0.5 µg/mL (≈ 0.939 µM)
MIC (S. pneumoniae ATCC 6303; S. No. 50, S. pneumoniae ATCC 6303): 0.25 µg/mL (≈ 0.47 µM)
MIC (S. pneumoniae CS 1687; S. No. 44, S. pneumoniae CS 1687): 0.5 µg/mL (≈ 0.939 µM)
MIC ((MRSA) 562; S. No. 8, (MRSA) 562): 1 µg/mL (≈ 1.88 µM)
MIC (S. pneumoniae ATCC 49619; S. No. 48, S. pneumoniae ATCC 49619): 0.25 µg/mL (≈ 0.47 µM)
MIC (S. aureus (Smith 49951); S. No. 9, S. aureus (Smith 49951)): 0.5 µg/mL (≈ 0.939 µM)
MIC (S. aureus ATCC29213; S. No. 2, S. aureus ATCC29213): 2 µg/mL (≈ 3.76 µM)
MIC (Acinetobacter 9956; S. No. 30, Acinetobacter 9956): >8 µg/mL
MIC (S. aureus (MRSA) ST450; S. No. 6, S. aureus (MRSA) ST450): 1 µg/mL (≈ 1.88 µM)
MIC (S. pneumoniae AB 21; S. No. 41, S. pneumoniae AB 21): 0.25 µg/mL (≈ 0.47 µM)
MIC (S. pneumoniae AB 22; S. No. 42, S. pneumoniae AB 22): 0.25 µg/mL (≈ 0.47 µM)
MIC (S. epidermidis 358; S. No. 14, S. epidermidis 358): 0.5 µg/mL (≈ 0.939 µM)
MIC (E. faecium 398(VRE); S. No. 22, E. faecium 398(VRE)): 0.5 µg/mL (≈ 0.939 µM)
MIC (S. pneumoniae 1251; S. No. 54, S. pneumoniae 1251): 0.25 µg/mL (≈ 0.47 µM)
MIC (S. pneumoniae AB 31; S. No. 36, S. pneumoniae AB 31): 0.25 µg/mL (≈ 0.47 µM)
MIC (Salmonella 205): >8 µg/mL
MIC (S. aureus (MRSA) 15187; S. No. 4, S. aureus (MRSA) 15187): 1 µg/mL (≈ 1.88 µM)
MIC (S. pneumoniae CS1221; S. No. 34, S. pneumoniae CS1221): 0.25 µg/mL (≈ 0.47 µM)
MIC (E. durans 581; S. No. 24, E. durans 581): 0.5 µg/mL (≈ 0.939 µM)
MIC (S. pneumoniae 217; S. No. 38, S. pneumoniae 217): 0.25 µg/mL (≈ 0.47 µM)
MIC (S. pneumoniae AB 16; S. No. 39, S. pneumoniae AB 16): 0.25 µg/mL (≈ 0.47 µM)
MIC (Moraxella M1; S. No. 58, Moraxella M1): 1 µg/mL (≈ 1.88 µM)
MIC (E. faecium 6A (VRE); S. No. 21, E. faecium 6A (VRE)): 0.5 µg/mL (≈ 0.939 µM)
MIC ([2]; S. No. 29, Serratia marcescens 12999): >8 µg/mL
MIC (E. coli 25922; S. No. 25, E. coli 25922): >8 µg/mL
MIC (S. pneumoniae AB 34; S. No. 49, S. pneumoniae AB 34): 0.5 µg/mL (≈ 0.939 µM)
MIC (S. pneumoniae AB 25; S. No. 45, S. pneumoniae AB 25): 0.25 µg/mL (≈ 0.47 µM)
MIC (S. epidermidis 823; S. No. 12, S. epidermidis 823): 0.5 µg/mL (≈ 0.939 µM)
